Source: ChEMBL document CHEMBL1123638 (J Med Chem, 1987)
Values after ≈ are worked out from the molar mass of the structure shown.

How the values were obtained:
Dihydrofolate reductase [1] = molecular target: T1, Dihydrofolate reductase (Rattus norvegicus, UniProt Q920D2); experiment: Inhibitory activity against dihydrofolate reductase (DHFR) enzyme from rat liver; settings: read-out: I50
T1 sequence (Q920D2 whole entry): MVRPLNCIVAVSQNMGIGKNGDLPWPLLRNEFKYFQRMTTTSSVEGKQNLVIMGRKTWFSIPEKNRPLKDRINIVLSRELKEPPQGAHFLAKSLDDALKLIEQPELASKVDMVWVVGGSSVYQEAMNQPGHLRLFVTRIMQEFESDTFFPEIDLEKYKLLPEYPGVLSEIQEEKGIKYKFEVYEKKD

Salmonella = experiment: In vitro antibacterial activity against Salmonella typhi (CN512)
Shigella flexneri = experiment: In vitro antibacterial activity against Shigella flexneri (CN6007)
[2] = molecular target: Bifunctional dihydrofolate reductase-thymidylate synthase (Plasmodium berghei str. ANKA, UniProt Q27713); experiment: Inhibitory activity against dihydrofolate reductase (DHFR) enzyme from Plasmodium berghei; settings: read-out: I50
Sequence of Bifunctional dihydrofolate reductase-thymidylate synthase (Q27713 whole entry): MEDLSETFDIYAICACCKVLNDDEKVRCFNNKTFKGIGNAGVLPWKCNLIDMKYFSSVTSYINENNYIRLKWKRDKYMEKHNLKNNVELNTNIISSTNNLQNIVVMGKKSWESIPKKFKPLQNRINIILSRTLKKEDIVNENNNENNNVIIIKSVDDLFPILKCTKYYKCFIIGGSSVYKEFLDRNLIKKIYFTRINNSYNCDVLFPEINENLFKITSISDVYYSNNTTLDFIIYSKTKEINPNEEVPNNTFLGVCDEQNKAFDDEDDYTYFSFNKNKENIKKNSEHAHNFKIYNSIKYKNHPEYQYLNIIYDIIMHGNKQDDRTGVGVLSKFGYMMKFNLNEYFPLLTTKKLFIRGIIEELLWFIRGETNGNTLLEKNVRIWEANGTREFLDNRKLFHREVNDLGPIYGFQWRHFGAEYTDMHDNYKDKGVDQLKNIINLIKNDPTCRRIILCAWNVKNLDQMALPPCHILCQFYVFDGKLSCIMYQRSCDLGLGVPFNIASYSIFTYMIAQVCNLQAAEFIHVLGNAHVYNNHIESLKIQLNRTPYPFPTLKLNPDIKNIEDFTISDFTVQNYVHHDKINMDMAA

Escherichia coli = experiment: In vitro antibacterial activity against Escherichia coli (CN314)
Proteus vulgaris = experiment: In vitro antibacterial activity against Proteus vulgaris (CN3296)
Staphylococcus aureus = experiment: In vitro antibacterial activity against Staphylococcus aureus (CN491)
Dihydrofolate reductase [3] = molecular target: T2, Dihydrofolate reductase (Gallus gallus, UniProt P00378); experiment: Inhibitory activity against dihydrofolate reductase (DHFR) enzyme from chicken liver; settings: read-out: I50
T2 sequence (P00378 whole entry): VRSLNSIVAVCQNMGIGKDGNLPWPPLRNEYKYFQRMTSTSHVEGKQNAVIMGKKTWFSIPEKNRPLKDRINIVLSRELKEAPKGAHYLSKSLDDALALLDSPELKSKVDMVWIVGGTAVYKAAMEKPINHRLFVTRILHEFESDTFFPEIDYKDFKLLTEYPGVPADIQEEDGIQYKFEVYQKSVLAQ

Klebsiella aerogenes = experiment: In vitro antibacterial activity against Enterobacter aerogenes (2200/86)
Klebsiella pneumoniae = experiment: microbe, parasite or virus in culture
Description: In vitro antibacterial activity against Klebsiella pneumoniae (CN 3632)

[4] = Acid dissociation constant was determined; format: ADME
[5] = Partition coefficient (logP); format: physicochemical; settings: octanol/water

SMILES: COc1ccc(Cc2cnc(N)nc2N)cc1
- IC50 (Dihydrofolate reductase [1]): 170 µM

SMILES: CCc1ccc(Cc2cnc(N)nc2N)cc1CC
- MIC (Salmonella): 3 µg/mL (≈ 11.7 µM)
- IC50 (Dihydrofolate reductase [1]): 59 µM
- MIC (Shigella flexneri): 10 µg/mL (≈ 39 µM)
- IC50 [2]: 0.068 µM
- MIC (Escherichia coli): 3 µg/mL (≈ 11.7 µM)
- MIC (Proteus vulgaris): 30 µg/mL (≈ 117 µM)
- MIC (Staphylococcus aureus): 3 µg/mL (≈ 11.7 µM)
- IC50 (Dihydrofolate reductase [3]): 120 µM
- MIC (Klebsiella aerogenes): 10 µg/mL (≈ 39 µM)
- MIC (Klebsiella pneumoniae): 30 µg/mL (≈ 117 µM)

SMILES: CCc1cc(Cc2cnc(N)nc2N)cc(CC)c1CC
- MIC (Salmonella): 1 µg/mL (≈ 3.52 µM)
- IC50 (Dihydrofolate reductase [1]): 38 µM
- MIC (Shigella flexneri): 3 µg/mL (≈ 10.5 µM)
- IC50 [2]: 0.073 µM
- MIC (Escherichia coli): 1 µg/mL (≈ 3.52 µM)
- MIC (Proteus vulgaris): 30 µg/mL (≈ 105 µM)
- MIC (Staphylococcus aureus): 0.1 µg/mL (≈ 0.352 µM)
- IC50 (Dihydrofolate reductase [3]): 33 µM
- MIC (Klebsiella aerogenes): 10 µg/mL (≈ 35.2 µM)
- MIC (Klebsiella pneumoniae): 10 µg/mL (≈ 35.2 µM)
- pKa [4]: 7.12
- logP [5]: 1.33

SMILES: CC(C)(C)c1ccc(Cc2cnc(N)nc2N)cc1
- MIC (Salmonella): 10 µg/mL (≈ 39 µM)
- IC50 (Dihydrofolate reductase [1]): 230 µM
- MIC (Shigella flexneri): 30 µg/mL (≈ 117 µM)
- MIC (Escherichia coli): 10 µg/mL (≈ 39 µM)
- MIC (Proteus vulgaris): 100 µg/mL (≈ 390 µM)
- MIC (Staphylococcus aureus): 10 µg/mL (≈ 39 µM)
- MIC (Klebsiella aerogenes): 30 µg/mL (≈ 117 µM)
- MIC (Klebsiella pneumoniae): 100 µg/mL (≈ 390 µM)

SMILES: CCc1ccc(Cc2cnc(N)nc2N)cc1
- MIC (Salmonella): 10 µg/mL (≈ 43.8 µM)
- IC50 (Dihydrofolate reductase [1]): > 40 µM
- MIC (Shigella flexneri): 10 µg/mL (≈ 43.8 µM)
- MIC (Escherichia coli): 10 µg/mL (≈ 43.8 µM)
- MIC (Proteus vulgaris): 30 µg/mL (≈ 131 µM)
- MIC (Staphylococcus aureus): 30 µg/mL (≈ 131 µM)
- MIC (Klebsiella aerogenes): 10 µg/mL (≈ 43.8 µM)
- MIC (Klebsiella pneumoniae): 30 µg/mL (≈ 131 µM)

SMILES: CCc1ccc(Cc2cnc(N)nc2N)cc1C(C)C
- MIC (Salmonella): 10 µg/mL (≈ 37 µM)
- IC50 (Dihydrofolate reductase [1]): 29 µM
- MIC (Shigella flexneri): 30 µg/mL (≈ 111 µM)
- MIC (Escherichia coli): 30 µg/mL (≈ 111 µM)
- MIC (Proteus vulgaris): 100 µg/mL (≈ 370 µM)
- MIC (Staphylococcus aureus): 3 µg/mL (≈ 11.1 µM)
- MIC (Klebsiella aerogenes): 100 µg/mL (≈ 370 µM)
- MIC (Klebsiella pneumoniae): 100 µg/mL (≈ 370 µM)

SMILES: CC(C)c1ccc(Cc2cnc(N)nc2N)cc1
- MIC (Salmonella): 16 µg/mL (≈ 66 µM)
- IC50 (Dihydrofolate reductase [1]): 210 µM
- MIC (Shigella flexneri): 32 µg/mL (≈ 132 µM)
- MIC (Escherichia coli): 16 µg/mL (≈ 66 µM)
- MIC (Proteus vulgaris): 125 µg/mL (≈ 516 µM)
- MIC (Staphylococcus aureus): 8 µg/mL (≈ 33 µM)

SMILES: COc1ccc(Cc2cnc(N)nc2N)cc1OC [DIAVERIDINE]
- MIC (Salmonella): 0.1 µg/mL (≈ 0.384 µM)
- IC50 (Dihydrofolate reductase [1]): 78 µM
- MIC (Shigella flexneri): 0.5 µg/mL (≈ 1.92 µM)
- IC50 [2]: 0.21 µM
- MIC (Escherichia coli): 0.5 µg/mL (≈ 1.92 µM)
- MIC (Proteus vulgaris): 5 µg/mL (≈ 19.2 µM)
- MIC (Staphylococcus aureus): 5 µg/mL (≈ 19.2 µM)
- IC50 (Dihydrofolate reductase [3]): 300 µM
- MIC (Klebsiella aerogenes): 0.5 µg/mL (≈ 1.92 µM)
- MIC (Klebsiella pneumoniae): 5 µg/mL (≈ 19.2 µM)

SMILES: COc1cc(Cc2cnc(N)nc2N)cc(OC)c1OC [TRIMETHOPRIM]
- MIC (Salmonella): 0.03 µg/mL (≈ 0.103 µM)
- MIC (Shigella flexneri): 0.1 µg/mL (≈ 0.344 µM)
- MIC (Escherichia coli): 0.1 µg/mL (≈ 0.344 µM)
- MIC (Proteus vulgaris): 1 µg/mL (≈ 3.44 µM)
- MIC (Staphylococcus aureus): 0.3 µg/mL (≈ 1.03 µM)
- MIC (Klebsiella aerogenes): 0.3 µg/mL (≈ 1.03 µM)
- MIC (Klebsiella pneumoniae): 1 µg/mL (≈ 3.44 µM)
